Legend:
[1] = Disintegration of uncoated, compressed tablets in deionized water (USP <701>); format: physicochemical; settings: whole, intact tablet in deionized water; single tablet per example
Procedure: The uncoated, compressed tablets were assessed for disintegration. The disintegration time was measured using the procedure and apparatus as described by physical test <701>, Disintegration, from The United States Pharmacopeia, Volume 29. The disintegration of a single tablet from each example was measured.

[2] = Phosphate Binding Assay (excess phosphate, pH 3.0, 37° C., ion chromatography); settings: 2.5 mg La2(CO3)3/mL phosphate solution, 60 minutes; for Binding Capacity, Ground Tablet: whole tablet coarsely ground before analysis; for Binding Capacity, Whole Tablet: whole tablet without further modification
Description: Table II describes the phosphate binding ability of the prepared Examples in either whole or ground tablet form. The ground tablets simulate a chewable tablet formulation after chewing has occurred. Phosphate binding ability is a term used to predict the amount of phosphate that can be bound by a sequestrant under conditions which employ a large excess of phosphate, such as those found in the stomach. Mazzeo, J. R.; et. al. Journal of Pharmaceutical and Biomedical Analysis 1999, vol. 19, pps. 911-915. This assay, which utilizes a large excess of phosphate, is therefore a better functional model of biological conditions than the assay described in U.S. Pat. No. 5,968,976 which utilizes only two molar equivalents of phosphate ion per mole of lanthanum carbonate.
The uncoated, compressed tablets obtained from Examples 1-17 were assessed for phosphate binding ability. Whole tablets, prepared as described above, as well as coarsely ground tablets were both examined.
i. Preparation of stock phosphate solution:
21.4 g N,N-bis(hydroxyethyl)-2-aminoethanesulfonic acid, 4.7 g NaCl, and 2.7 g KH2PO4 (ultra high purity) were added to a 1000 mL volumetric flask and dissolved in 950 mL DI H2O. The pH was then adjusted to 3.0 (±0.05) with HCl, and the solution was diluted to volume with DI H2O and mixed.
The lanthanum carbonate complex was added to the stock phosphate solution so that the final concentration was 2.5 mg La2(CO3)3/mL phosphate solution. The mixture was heated at 37° C. for 60 minutes with constant swirling. It was then filtered through a 0.2 μm nylon filter.
The sample was then diluted to allow injection into the ion chromatograph. Here, a dilution factor of 100 was used: a 1.0 mL aliquot was removed and diluted volumetrically to 100 mL with DI water.
iii. Phosphate Measurement
The amount of unbound phosphate was determined by ion chromatography on a Dionex ICS-1500 ion chromatograph equipped with a conductivity cell (35° C.) and a Dionex MRS 300 4 mm auto suppressor. Material was eluted through a Dionex AG11-HC guard column (4×50 mm) and a Dionex AS11-HC column (4×250 mm) at 1.0 mL/min using 25 mM NaOH in DI H2O as the mobile phase. The sample response was then recorded by a computerized chromatography data system.
iv. Construction of Phosphate Calibration Curve
The linearity of the response was verified as follows. A series of standards over a wide range of free phosphate concentration (approximately 0.04, 0.06, 0.10, 0.15, 0.20, and 0.25 mM) were prepared and their ion chromatographic responses were determined. A plot of free phosphate concentration (mM) vs. response was then constructed. The slope and y-intercept of the resulting linear regression plot were then determined.
The phosphate binding capacity was calculated from the following equations.

In the case of `O=C([O-])[O-].O=C([O-])[O-].O=C([O-])[O-].[La+3].[La+3]` [Example 14, La2(CO3)3•5H20], the “Disintegration Time” value [1] is reported as 5 h, the “Binding Capacity, Ground Tablet” value [2] is reported as 3.0 mmol PO4-2/g La2(CO3)3 and the “Binding Capacity, Whole Tablet” value [2] is reported as 0.7 mmol PO4-2/g La2(CO3)3.
With `O.O.O.O.O.O.O.O.O=C([O-])[O-].O=C([O-])[O-].O=C([O-])[O-].[La+3].[La+3]` [Example 15, La2(CO3)3•8H20] the “Disintegration Time” value [1] was greater than 7 h, the “Binding Capacity, Ground Tablet” value [2] was 3.0 mmol PO4-2/g La2(CO3)3 and the “Binding Capacity, Whole Tablet” value [2] was 0.6 mmol PO4-2/g La2(CO3)3.
In the case of `O.O.O.O.O.O.O.O.O.O.O.O.O.O.O=C([O-])[O-].O=C([O-])[O-].O=C([O-])[O-].[La+3].[La+3]` [Example 16, La2(CO3)3•14H20], the “Disintegration Time” value [1] is reported as greater than 7 h, the “Binding Capacity, Ground Tablet” value [2] is reported as 3.6 mmol PO4-2/g La2(CO3)3 and the “Binding Capacity, Whole Tablet” value [2] is reported as 0.8 mmol PO4-2/g La2(CO3)3.

From US8962036B2, “Disintegrable formulations of lanthanum carbonate” (Mylan Pharmaceuticals Inc., priority 2009, dated 2015)
